Source: US12668600B2 (Kumquat Biosciences Inc., priority 2023, dated 2026)

Legend:
Assay type in all cases: biochemical
KRAS G12D = target: T1, KRAS G12D (Homo sapiens, UniProt P01116, G12D); experiment: HTRF KRAS-SOS1 interaction assay, KRAS G12D; settings: binned ≤2 μM / >2 μM, read-out: Inhibition of KRAS G12D (IC50)
T1 construct: made in house; host or cells: E. coli, e.g. BL21 (DE3)
In short: (§1)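 Read-out: HTRF ratio 665/620 nm after ≥10 min incubation of compound with GST-KRAS/anti-GST-Eu and His-hSOS1/anti-6His-XL665. Duplicate dose series, 10 μM down to 0.01 μM. Buffer HEPES pH 7.4, NaCl, DTT, BSA, Igepal.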

KRAS WT = target: T2, KRAS WT (Homo sapiens, UniProt P01116); experiment: HTRF KRAS-SOS1 interaction assay, wildtype KRAS; settings: binned ≤2 μM / >2 μM, read-out: Inhibition of KRAS WT (IC50)
T2 construct: made in house; host or cells: E. coli, e.g. BL21 (DE3)
In short: as §1

KRAS G12V = target: T3, KRAS G12V (Homo sapiens, UniProt P01116, G12V); experiment: HTRF KRAS-SOS1 interaction assay, KRAS G12V; settings: binned ≤2 μM / >2 μM, read-out: Inhibition of KRAS G12V (IC50)
T3 construct: made in house; host or cells: E. coli, e.g. BL21 (DE3)
In short: as §1

KRAS G12S = target: T4, KRAS G12S (Homo sapiens, UniProt P01116, G12S); experiment: HTRF KRAS-SOS1 interaction assay, KRAS G12S; settings: binned ≤2 μM / >2 μM, read-out: Inhibition of KRAS G12S (IC50)
T4 construct: made in house; host or cells: E. coli, e.g. BL21 (DE3)
In short: as §1

T4 sequence (P01116 1-188 isoform P01116-2 G12S): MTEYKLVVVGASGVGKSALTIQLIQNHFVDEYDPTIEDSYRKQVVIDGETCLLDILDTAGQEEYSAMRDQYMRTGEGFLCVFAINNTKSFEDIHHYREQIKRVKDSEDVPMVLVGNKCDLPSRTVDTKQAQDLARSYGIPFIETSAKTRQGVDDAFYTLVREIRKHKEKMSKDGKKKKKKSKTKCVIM
T1 sequence (P01116 1-188 isoform P01116-2 G12D): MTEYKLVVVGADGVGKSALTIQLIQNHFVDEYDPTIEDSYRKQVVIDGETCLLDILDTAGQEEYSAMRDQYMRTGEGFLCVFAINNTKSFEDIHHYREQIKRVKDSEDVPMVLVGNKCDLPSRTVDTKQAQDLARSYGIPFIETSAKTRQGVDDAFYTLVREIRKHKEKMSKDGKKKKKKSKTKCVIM
T2 sequence (P01116 1-188 isoform P01116-2): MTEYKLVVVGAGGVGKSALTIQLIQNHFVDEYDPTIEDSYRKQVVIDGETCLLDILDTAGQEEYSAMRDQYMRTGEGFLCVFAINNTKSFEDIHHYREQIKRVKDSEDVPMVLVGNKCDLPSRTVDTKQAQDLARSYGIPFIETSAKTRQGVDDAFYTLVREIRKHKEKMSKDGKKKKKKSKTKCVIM
T3 sequence (P01116 1-188 isoform P01116-2 G12V): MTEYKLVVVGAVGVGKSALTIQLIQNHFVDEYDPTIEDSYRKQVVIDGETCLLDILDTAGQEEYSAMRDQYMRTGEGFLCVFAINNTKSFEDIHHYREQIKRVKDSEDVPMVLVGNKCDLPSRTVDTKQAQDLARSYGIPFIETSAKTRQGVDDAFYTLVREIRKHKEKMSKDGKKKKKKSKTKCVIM

SMILES | IC50 (KRAS G12D) [nM] | IC50 (KRAS WT) [nM] | IC50 (KRAS G12V) [nM] | IC50 (KRAS G12S) [nM]
C[C@H](Oc1nc2c3c(c(Cl)c(-c4ccc(F)c5sc(N)c(C#N)c45)c(F)c3n1)OCCN2[C@H](C)c1cccnc1N)[C@@H]1CCCN1C (single isomer, unassigned) [Compound 633] | ≤ 2000 | ≤ 2000 | ≤ 2000 | ≤ 2000
N#Cc1c(N)sc2c(F)ccc(-c3c(C(F)(F)F)c4c5c(nc(OC[C@@]67CCCN6C[C@H](F)C7)nc5c3F)N([C@H](CCC(F)(F)F)c3cccnc3N)CCO4)c12 (atropisomer, axis not shown; (aS)) [Compound 614, 2-amino-4-((S)-4-((R)-1-(2-aminopyridin-3-yl)-4,4,4-trifluorobutyl)-10-fluoro-2-(((2R,7aS)-2-fluorotetrahydro-1H-pyrrolizin-7a (5H)-yl)methoxy)-8-(trifluoromethyl)-5,6-dihydro-4H-[1,4]oxazepino[5,6,7-de]quinazolin-9-yl)-7-fluorobenzo[b]thiophene-3-carbonitrile] | ≤ 2000 | ≤ 2000 | ≤ 2000 | ≤ 2000
N#Cc1c(N)sc2c(F)ccc(-c3c(C(F)(F)F)c4c5c(nc(OC[C@@]67CCCN6CC(=C(F)F)C7)nc5c3F)N([C@H](CC3CCOCC3)c3cccnc3N)CCO4)c12 [Compound 781, 2-amino-4-(4-((R)-1-(2-aminopyridin-3-yl)-2-(tetrahydro-2H-pyran-4-yl)ethyl)-2-(((S)-2-(difluoromethylene)tetrahydro-1H-pyrrolizin-7a(5H)-yl)methoxy)-10-fluoro-8-(trifluoromethyl)-5,6-dihydro-4H-[1,4]oxazepino[5,6,7-de]quinazolin-9-yl)-7-fluorobenzo[b]thiophene-3-carbonitrile] | ≤ 2000 | ≤ 2000 | ≤ 2000 | ≤ 2000
C=C1CN2CCC[C@@]2(COc2nc3c4c(c(C(F)(F)F)c(-c5ccc(F)c6sc(N)c(C#N)c56)c(F)c4n2)OCCN3[C@H](C)c2cc(F)cnc2N)C1 [Compound 620, 2-amino-4-(4-((R)-1-(2-amino-5-fluoropyridin-3-yl)ethyl)-10-fluoro-2-(((S)-2-methylenetetrahydro-1H-pyrrolizin-7a(5H)-yl)methoxy)-8-(trifluoromethyl)-5,6-dihydro-4H-[1,4]oxazepino[5,6,7-de]quinazolin-9-yl)-7-fluorobenzo[b]thiophene-3-carbonitrile] | ≤ 2000 | ≤ 2000 | ≤ 2000 | ≤ 2000
C#Cc1c(F)ccc2cc(O)cc(-c3nc4c5c(nc(OC[C@@]67CCCN6C[C@H](F)C7)nc5c3F)N([C@H](C)c3cccnc3N)CCO4)c12 (single isomer, unassigned) [Compound 862] | ≤ 2000 | ≤ 2000 | ≤ 2000 | ≤ 2000
N#Cc1c(N)sc2cccc(-c3c(Cl)c4c5c(nc(OC[C@@]67CCCN6C[C@H](F)C7)nc5c3F)N([C@@H](c3cccnc3N)C(F)F)CCO4)c12 (single isomer, unassigned) [Compound 672] | ≤ 2000 | ≤ 2000 | ≤ 2000 | ≤ 2000
C[C@H](c1cccnc1N)N1CCOc2c(C(F)(F)F)c(-c3ccc(F)c4sc(N)c(C#N)c34)c(F)c3nc(OCC4(CN5CC[C@@H](F)C5)CC4)nc1c23 [Compound 698, 2-amino-4-(4-((R)-1-(2-aminopyridin-3-yl)ethyl)-10-fluoro-2-((1-(((R)-3-fluoropyrrolidin-1-yl)methyl)cyclopropyl)methoxy)-8-(trifluoromethyl)-5,6-dihydro-4H-[1,4]oxazepino[5,6,7-de]quinazolin-9-yl)-7-fluorobenzo[b]thiophene-3-carbonitrile] | ≤ 2000 | ≤ 2000 | ≤ 2000 | ≤ 2000

The next lines start with the values.

IC50 (KRAS G12D) [nM] | IC50 (KRAS WT) [nM] | IC50 (KRAS G12V) [nM] | IC50 (KRAS G12S) [nM] | SMILES
> 2000 | > 2000 | > 2000 | > 2000 | C[C@H](c1cc(Cl)cnc1N)N1CCOc2c(C(F)(F)F)c(-c3ccc(F)c4sc(N)c(C#N)c34)c(F)c3nc(OC[C@@]45CCCN4C[C@H](F)C5)nc1c23 (single isomer, unassigned) [Compound 702]
≤ 2000 | ≤ 2000 | ≤ 2000 | ≤ 2000 | C[C@H](c1cccnc1F)N1CCOc2c(C(F)(F)F)c(-c3ccc(F)c4sc(N)c(C#N)c34)c(F)c3nc(OC[C@@]45CCCN4C[C@H](F)C5)nc1c23 [Compound 817, 2-amino-7-fluoro-4-(10-fluoro-4-((R)-1-(2-fluoropyridin-3-yl)ethyl)-2-(((2R,7aS)-2-fluorotetrahydro-1H-pyrrolizin-7a(5H)-yl)methoxy)-8-(trifluoromethyl)-5,6-dihydro-4H-[1,4]oxazepino[5,6,7-de]quinazolin-9-yl)benzo[b]thiophene-3-carbonitrile]
≤ 2000 | ≤ 2000 | ≤ 2000 | ≤ 2000 | C[C@H](c1cccnc1N)N1CCOc2c(Br)c(-c3ccc(F)c4sc(N)c(C#N)c34)c(F)c3nc(OC[C@@]45CCCN4C[C@H](F)C5)nc1c23 (single isomer, unassigned) [Compound 858]
> 2000 | ≤ 2000 | > 2000 | > 2000 | C[C@H](c1cccnc1N)N1CCOc2c(C(F)(F)F)c(-c3ccc(F)c4sc(N)c(C#N)c34)c(F)c3nc(OC[C@@]45CCCN4CC(C#N)C5)nc1c23 (stereo partly drawn) [Compound 852, (7aS)-7a-(((9-(2-amino-3-cyano-7-fluorobenzo[b]thiophen-4-yl)-4-((R)-1-(2-aminopyridin-3-yl)ethyl)-10-fluoro-8-(trifluoromethyl)-5,6-dihydro-4H-[1,4]oxazepino[5,6,7-de]quinazolin-2-yl)oxy)methyl)hexahydro-1H-pyrrolizine-2-carbonitrile]
≤ 2000 | ≤ 2000 | ≤ 2000 | ≤ 2000 | C#CCC(c1cccnc1N)N1CCOc2c(Cl)c(-c3ccc(F)c4sc(N)c(C#N)c34)c(F)c3nc(OC[C@@]45CCCN4C[C@H](F)C5)nc1c23 (single isomer, unassigned) [Compound 764]
≤ 2000 | ≤ 2000 | ≤ 2000 | ≤ 2000 | C=C[C@H](c1cccnc1N)N1CCOc2c(Cl)c(-c3ccc(F)c4sc(N)c(C#N)c34)c(F)c3nc(OC[C@@]45CCCN4C[C@H](F)C5)nc1c23 [Compound 759, 2-amino-4-(4-((R)-1-(2-aminopyridin-3-yl)allyl)-8-chloro-10-fluoro-2-(((2R,7aS)-2-fluorotetrahydro-1H-pyrrolizin-7a(5H)-yl)methoxy)-5,6-dihydro-4H-[1,4]oxazepino[5,6,7-de]quinazolin-9-yl)-7-fluorobenzo[b]thiophene-3-carbonitrile]
≤ 2000 | ≤ 2000 | ≤ 2000 | ≤ 2000 | C[C@H](c1cccnc1N)N1CCOc2c(Cl)c(-c3ccc(F)c4sc(N)c(C#N)c34)c(F)c3nc(OC[C@]45CCCN4[C@H](CN)CC5)nc1c23 [Compound 915, 2-amino-4-(2-(((3S,7aR)-3-(aminomethyl)tetrahydro-1H-pyrrolizin-7a(5H)-yl)methoxy)-4-((R)-1-(2-aminopyridin-3-yl)ethyl)-8-chloro-10-fluoro-5,6-dihydro-4H-[1,4]oxazepino[5,6,7-de]quinazolin-9-yl)-7-fluorobenzo[b]thiophene-3-carbonitrile]
